Laboratory results published in patent publication US20220354929A1, “PEPTIDES AND USES THEREOF” (LATERAL IP PTY LTD, priority 2019, published 2022).
Values joined by “and” are separate entries in the source; they are usually repeats but may differ in a detail not shown here. Equal values may be shown once. “Also recorded” adds a separate entry of the source.

What was measured:
[1] = tested on: dorsal horn neurones; experiment: whole-cell patch clamp recording in spinal cord slices from Chung models of neuropathic pain: membrane properties of dorsal horn neurones; format: cell-based, rat; conditions: for ΔVm, change in membrane potential: prolactin 500 nM vs rest
From the text: (§1) An in vitro spinal cord slice with intact dorsal root afferents combined with single-cell whole-cell patch clamp electrophysiological recording techniques was used to assess the electrophysiological properties of the peptides having the amino acid sequence of SEQ ID NO:2, 3, 4 and 5.
The spinal nerve ligation model (Chung model) was first reported by Kim and Chung (1992; Pain, 50(3):355-63) and involves a single tight ligation of the L5 spinal nerve. […] This model has been used as a “gold standard” model for assessing the efficacy of novel compounds targeting neuropathic pain.
Adult male Sprague-Dawley rats, 8-9 weeks old, weighing 220-250 g at the time of surgery, were purchased from Charles River UK Ltd. The animals were housed in groups of 4 in an air-conditioned room on a 12-hour light/dark cycle. Food and water were available ad libitum. They were allowed to acclimatise to the experimental environment for three days by leaving them on a raised metal mesh for at least 40 min. The baseline paw withdrawal threshold (PWT) was examined using a series of graduated von Frey hairs for 3 consecutive days before surgery and re-assessed on the 6th to 8th day after surgery and on the 12th to 14th day after surgery before drug dosing. Each rat was anaesthetized with 5% isoflurane mixed with oxygen (2L per min) followed by an intramuscular (i.m.) injection of ketamine 90 mg/kg plus xylazine 10 mg/kg. The back was shaved and sterilized with povidone-iodine. The animal was placed in a prone position and a para-medial incision was made on the skin covering the L4-6 level. The L5 spinal nerve was carefully isolated and tightly ligated with 6/0 silk suture. The wound was then closed in layers after a complete hemostasis. A single dose of antibiotics (Amoxipen, 15 mg/rat, i.p.) was routinely given for prevention of infection after surgery. The animals were placed in a temperature-controlled recovery chamber until fully awake before being returned to their home cages.
(§2) Chung model rats, aged 8 to 12 weeks, were housed in an air-conditioned room on a 12 hour light/dark cycle with food and water available ad libitum. The rats were terminally anaesthetized using isofluorane and decapitated. The vertebral column, rib cage and surrounding tissues were rapidly removed and pinned under ice-cold (<4° C.), high sucrose-containing artificial cerebrospinal fluid (aCSF) comprising: 127 mM sucrose, 1.9 mM KCl, 1.2 mM KH2PO4, 0.24 mM CaCl2, 3.9 mM MgCl2, 26 mM NaHCO3, 10 mM D-glucose and 0.5 mM ascorbic acid. A laminectomy was performed and the spinal cord and associated roots gently dissected and teased out of the spinal column and surrounding tissues. Dura and pia mater and ventral roots were subsequently removed with fine forceps and the spinal cord hemisected. Care was taken to ensure dorsal root inputs to the spinal cord were maintained. The hemisected spinal cord-dorsal root preparations were secured to a tissue slicer and spinal cord slices (400 to 450 μm thick) with dorsal roots attached were cut in chilled (<4° C.) high sucrose aCSF using a Leica VT1000s microtome.
(§3) Slices were transferred to a small beaker containing ice cold aCSF with 127 mM NaCl, 1.9 mM KCl, 1.2 mM KH2PO4, 1.3 mM MgCl2, 2.4 mM CaCl2, 26 mM NaHCO3 and 10 mM D-glucose, and rapidly warmed to 35° C. ±1° C. in a temperature-controlled water bath over a 20 minute period, then subsequently removed and maintained at room temperature (22° C. ±2° C.) prior to electrophysiological recording. Electrophysiological recording was performed in aCSF comprising 127 mM NaCl, 1.9 mM KCl, 1.2 mM KH2PO4, 1.3 mM MgCl2, 2.4 mM CaCl2, 26 mM NaHCO3 and 10 mM D-glucose.
Whole-cell recordings were performed at 34-35° C. from Lamina I or II neurones in the dorsal horn of the spinal cord slices using Axopatch 1D and/or Multiclamp 700B amplifies and using the “blind” version of the patch-clamp technique. […]

[2] = tested on: dorsal root afferent-mediated synaptic inputs to dorsal horn neurones; experiment: whole-cell recording in spinal cord slices from Chung models: dorsal root afferent-mediated synaptic inputs (evoked EPSPs/IPSPs); format: cell-based, rat; conditions: for effect on dorsal root-evoked IPSPs (in words): prolactin 500 nM, 0.1 Hz and 5 Hz
Description: as §1, §2, §3
Whole-cell recordings were performed at 34-35° C. from Lamina I or II neurones in the dorsal horn of the spinal cord slices using Axopatch 1D and/or Multiclamp 700B amplifies and using the “blind” version of the patch-clamp technique.
Patch pipettes were pulled from thin-walled borosilicate glass with resistances of between 3 and 8 MS2 when filled with intracellular solution (140 mM potassium gluconate, 10 mM KCl, 1 mM EGTA-Na, 10 mM HEPES, 4 mM Na2ATP, 0.3 mM Na-GTP). The peptides of SEQ ID NOs:2, 3, 4 or 5 (LAT7771, LAT7772, LAT7773 or LAT7774) were diluted in the tissue bath at a concentration of 5 μM.
A concentric bipolar stimulating electrode was placed appropriately either on the dorsal root or dorsal root entry zone to evoke postsynaptic potentials/currents in recorded cells (see FIG. 1). […] EPSPs/EPSCs were confirmed as monosynaptic on the basis of being characterised by a constant latency and rise-time with few failures.
Recordings were monitored on an oscilloscope and stored on digital audio tapes for later off-line analysis. In addition, data were low-pass filtered at 2-5 kHz, (1 kHz for voltage-clamp data), digitized at 2-10 kHz and stored on a PC running pCLAMP 10 data acquisition software (Axon Instruments). Analysis of electrophysiological data was carried out using Clampfit 10 software.

[3] = tested on: Chung model of neuropathic pain; experiment: paw withdrawal threshold (von Frey) in Chung model of neuropathic pain, oral or intramuscular administration; format: in vivo, rat; conditions: 2 hours after administration, ipsilateral side
From the text: Chung model of neuropathic pain was used to compare the in vivo efficacy of LAT8881 and LAT7771 administered orally or intramuscularly.
The spinal nerve ligation model (Chung model) was first reported by Kim and Chung (1992; Pain, 50(3):355-63) and involves a single tight ligation of the L5 spinal nerve. […] This model has been used as a “gold standard' model for assessing the efficacy of novel compounds targeting neuropathic pain.
Adult male Sprague-Dawley rats, 8-9 weeks old, weighing 220-250 g at the time of surgery, were anaesthetised with 3% isoflurane mixed with oxygen followed by an intramuscular injection of a mixture of ketamine and xylazine. The back was shaved and sterilised with povidone-iodine soaked cotton balls. The L5 spinal nerve was carefully isolated and tightly located with 6/0 silk suture and the wound was closed in layers. The single-dose antibiotics (Amoxipen, 100 mg/kg, i.p.) was routinely given for prevention of infection after surgery.
The animals were placed in individual Perspex boxes on a raised metal mesh for at least 40 minutes. Starting with the filament of lowest force (1 g), each filament was applied perpendicularly to the centre of the ventral surface of the paw until slightly bent for 6 seconds. If the animal withdrew or lifted its paw upon stimulation, a von Frey hair with force immediately lower than that tested was subsequently used. If no response was observed, then a hair with force immediately higher was tested. The lowest amount of force required to induce reliable responses (positive in 2 out of 3 trials) was recorded as the value of […] (PWT).
PWT was assessed once daily for three days before surgery and once a week for monitoring the development of mechanical allodynia.
All drug tests were carried out on the 13th to 17th day after surgery. All drug dosing was ‘blindly’ carried out by a second experimenter. The test compounds were administered and PWT was assessed before and 2 hours following drug or vehicle (5% DMSO) administration.

[4] = peptide 5 μM, responding neurones
[5] = LAT8881, concentration not given, one neurone
[6] = prolactin 500 nM, control = 100

## CRIIHNNNCG [LAT7772]
[1]; peptide 5 μM
  effect on membrane potential / postsynaptic membrane properties (in words): overall had little effect on membrane potential; also recorded: small membrane depolarisation in 2 neurones; also recorded: both membrane depolarisations and hyperpolarisations; also recorded: hyperpolarisation
  effect on neuronal input resistance (in words): decrease in neuronal input resistance in all 5 neurones; also recorded: significant decrease in neuronal input resistance; also recorded: reduction in neuronal input resistance
  neuronal input resistance, of control: 60.1±12.3 % of control
[1]; peptide 5 μM vs control
  change in neuronal input resistance: 149.1±81.7 MS2
[1]; peptide 5 μM vs control, table prints control minus drug, text the magnitude
  ΔIR, change in neuronal input resistance: 149.1 MΩ
[1]; peptide 5 μM, all cells
  Input Resistance, mean in presence of peptide: 172.3 MΩ
  neuronal input resistance in the presence of peptide: 172.3±33.2 MS2
[1]; peptide 5 μM, all cells, ipsilateral to injury
  Membrane Potential, mean in presence of peptide: −58.7±4.8 mV and −58.7 mV
[1]; peptide 5 μM, control = 100
  Normalised Input Resistance, mean in presence of peptide: 60.1
  Normalised Input Resistance, ΔIR: 39.9
[1]; peptide 5 μM, individual neurones
  reversal potential of peptide-induced response (intersection of VI relations): around −78 mV and ~−55 mV and −100 mV and −60 mV and around −60 mV
[1]; [4]
  membrane depolarisation in individual neurones: 12.7 mV
  membrane hyperpolarisation in individual neurones: 3.5 mV and 9.9 mV
[1]; peptide 5 μM, rest = 100
  Normalised Membrane Potential, mean in presence of peptide: 98.6
  Normalised Membrane Potential, ΔVm: 1.4
[2]; peptide 5 μM, dorsal root stimulation 0.1 Hz
  effect on dorsal root-evoked EPSPs / excitatory synaptic transmission (in words): suppressed dorsal root-evoked excitatory posts-synaptic potentials (EPSPs) in all neurones tested; also recorded: suppressive effect on EPSPs; also recorded: suppressed dorsal root afferent-mediated excitatory synaptic transmission

## YLRIVQCRSVEGSCGF [LAT8881, human growth hormone derived analgesic compound of PCT/AU2019/050020, reference compound]
[1]; LAT8881, concentration not given, one neurone, after wash of LAT7771
  effect on postsynaptic properties (in words): little or no effect on postsynaptic properties
[2]; [5]
  effect on dorsal root-evoked EPSPs (in words): suppressing EPSPs
  effect on inhibitory synaptic transmission / IPSPs (in words): partly mimicked by LAT8881; also recorded: enhanced inhibitory synaptic transmission
[3]; 10 mg/kg intramuscularly (IM)
  paw withdrawal threshold (PWT) / reversal of mechanical allodynia: reversed mechanical allodynia; also recorded: significantly increased the PWT
[3]; 10 mg/kg orally (PO)
  paw withdrawal threshold (PWT) / reversal of mechanical allodynia: reversed mechanical allodynia; also recorded: significantly increased the PWT

B1: Prolactin: native prolactin peptide (e.g., human prolactin of SEQ ID NO:30); parent prolactin protein (protein)
chain: MNIKGSPWKGSLLLLLVSNLLLCQSVAPLPICPGGAARCQVTLRDLFDRAVVLSHYIHNLSSEMFSEFDKRYTHGRGFITKAINSCHTSSLATPEDKEQAQQMNQKDFLSLIVSILRSWNEPLYHLVTEVRGMQEAPEAILSKAVEIEEQTKRLLEGMELIVSQVHPETKENEIYPVWSGLPSLQMADEESRLSAYYNLLHCLRRDSHKIDNYLKLLKCRIIHNNNC
[1]; prolactin 500 nM
  Input Resistance, mean in presence of prolactin: 637.3 MΩ
  effect on membrane potential (in words): principally induced membrane depolarisation
  effect on neuronal input resistance (in words): increase in neuronal input resistance
  neuronal input resistance in the presence of prolactin: 637.3±301.1 MS2
[1]; prolactin 500 nM vs control
  increase in neuronal input resistance: 79.0±60.5 MS2
  ΔIR, change in neuronal input resistance: −79.0 MΩ
[1]
  ΔVm, change in membrane potential: −2.8 mV
[1]; listed as prolactin
  ΔVm, change in membrane potential: 2.8±2.0 mV
[1]; prolactin 500 nM, all cells
  Membrane Potential, mean in presence of prolactin: −52.0 mV
[1]; prolactin 500 nM, all cells, listed as prolactin
  Membrane Potential, mean in presence of prolactin: −52.0±8.4 mV
[1]; [6]
  Normalised Input Resistance, mean in presence of prolactin: 113.9
  Normalised Input Resistance, ΔIR: −13.9
[1]; prolactin 500 nM, listed as prolactin
  effect on membrane potential (in words): small membrane depolarisation in 2 neurones; also recorded: little effect on a further dorsal horn neurone; also recorded: marginal membrane depolarisation
[1]; prolactin 500 nM, one cell
  reversal potential of prolactin-induced depolarisation (VI relations): around −90 mV
[1]; prolactin 500 nM, rest = 100
  Normalised Membrane Potential, mean in presence of prolactin: 95.8
  Normalised Membrane Potential, ΔVm: 4.2
[2]
  effect on dorsal root-evoked IPSPs (in words): no effect on IPSPs evoked by dorsal root stimulation in one cell
[2]; listed as prolactin
  effect on dorsal root-evoked IPSPs (in words): little effect on dorsal root stimulated inhibitory post-synaptic potentials (IPSPs)
